Experimental data from ChEMBL document CHEMBL1201862, “PubChem BioAssay data set” (2004).
Active and inactive are the calls of the source. Rule as the data show it: actives have a measured IC50 and inactives only a lower limit.

Molecular target: Envelope glycoprotein gp160 (Human immunodeficiency virus 1, UniProt Q6QLK5)
Test: inhibitors of HIV fusion peptide binding, primary screen, biochemical, uHTS, fluorescence dequenching (AID 1986)

Chain of Envelope glycoprotein gp160 (Q6QLK5 whole entry, the tested form may be a part): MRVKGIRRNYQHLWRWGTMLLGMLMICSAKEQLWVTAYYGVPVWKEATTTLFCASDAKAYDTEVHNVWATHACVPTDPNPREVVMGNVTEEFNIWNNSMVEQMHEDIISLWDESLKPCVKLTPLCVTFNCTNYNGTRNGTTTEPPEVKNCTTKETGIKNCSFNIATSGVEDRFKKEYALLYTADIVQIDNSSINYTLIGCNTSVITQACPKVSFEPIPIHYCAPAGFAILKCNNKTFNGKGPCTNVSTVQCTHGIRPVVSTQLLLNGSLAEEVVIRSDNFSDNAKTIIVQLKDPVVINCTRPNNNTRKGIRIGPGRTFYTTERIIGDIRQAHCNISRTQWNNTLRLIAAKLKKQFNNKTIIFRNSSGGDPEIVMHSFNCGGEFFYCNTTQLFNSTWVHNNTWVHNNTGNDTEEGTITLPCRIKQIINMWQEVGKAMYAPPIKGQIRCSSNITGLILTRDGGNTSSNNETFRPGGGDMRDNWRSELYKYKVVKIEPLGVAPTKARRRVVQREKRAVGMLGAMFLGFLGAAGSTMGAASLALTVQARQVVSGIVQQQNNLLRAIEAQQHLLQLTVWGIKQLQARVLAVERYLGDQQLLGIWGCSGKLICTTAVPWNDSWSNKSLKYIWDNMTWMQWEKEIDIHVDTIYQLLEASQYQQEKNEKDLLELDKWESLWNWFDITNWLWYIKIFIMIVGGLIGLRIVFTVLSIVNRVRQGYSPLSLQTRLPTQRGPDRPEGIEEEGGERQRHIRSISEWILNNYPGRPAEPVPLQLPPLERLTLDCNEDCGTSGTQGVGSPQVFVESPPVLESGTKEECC

SMILES | IC50
O=C(O)CSc1cc(C(=O)c2cc(F)ccc2O)cn2c(=O)c3c(-c4ccccc4)csc3nc12 | 14.9 µM (active)
N#Cc1c(-c2cccs2)nc(SCc2ccc(Cl)cc2)[nH]c1=O | 11.1 µM (active)
